Test results: ChEMBL document CHEMBL6127132, “Design, Synthesis, and Biological Evaluation of Novel Diaminopyrimidine Macrocycles as Fourth Generation Reversible EGFR Inhibitors That Overcome Clinical Resistance to Osimertinib Mediated by C797S Mutation” (J Med Chem, 2024)

Columns and labels:
[1] = molecular target: Epidermal growth factor receptor (Homo sapiens, UniProt P00533); assay: Inhibition of recombinant wildtype N-terminal GST-tagged human EGFR kinase domain (696 to end residues) extracted from baculovirus infect Sf21 insect cells incubated for 1 hrs by spectrophotometric analysis
[2] = molecular target: Epidermal growth factor receptor (Homo sapiens, UniProt P00533, L858R/T790M); assay: Inhibition of recombinant N-terminal GST-tagged human EGFR T790M/L858R mutant (696 to end residues) extracted from baculovirus infect Sf21 insect cells incubated for 1 hrs by spectrophotometric analysis
[3] = molecular target: Epidermal growth factor receptor (Homo sapiens, UniProt P00533, C797S/EX19DEL/T790M); assay: Inhibition of recombinant N-terminal GST-tagged human EGFR 19del/T790M/C797S mutant (668 to end residues) extracted from Sf9 insect cells incubated for 1 hrs by spectrophotometric analysis; format: cell-free
[4] = molecular target: Epidermal growth factor receptor (Homo sapiens, UniProt P00533, C797S/L858R/T790M); assay: Inhibition of recombinant C-terminal His-tagged/N-terminal GST-tagged human EGFR T790M/C797S/L858R mutant (668 to 1210 residues) extracted from baculovirus infected Sf9 insect cells incubated for 1 hrs by spectrophotometric analysis
[5] = Antiproliferative activity against mouse BaF3 cells assessed as inhibition of cell proliferation incubated for 72 hrs by CCK-8 assay; format: toxicity, cell-based
BaF3 [6] = assay: cells; conditions: Mus musculus, BaF3, 72 h
BaF3 [7] = assay: cells; conditions: Mus musculus, BaF3, 72 h; remark: listed apart in the source
cells = conditions: Homo sapiens, PC9-OR, 72 h
A-431 = assay: cells; conditions: Homo sapiens, A-431, 72 h
Description: Antiproliferative activity against human A-431 cells harboring wildtype EGFR assessed as inhibition of cell proliferation measured after 72 hrs by SRB assay

[8] = Induction of apoptosis in mouse BaF3 cells harboring EGFR 19del/T790M/C797S mutant assessed as early apoptotic cells at 30 nM incubated for 48 hrs by Annexin V-FITC/PI staining based flow cytometric analysis (reference value: 0.36 %); format: functional
[9] = Induction of apoptosis in mouse BaF3 cells harboring EGFR 19del/T790M/C797S mutant assessed as late apoptotic cells at 30 nM incubated for 48 hrs by Annexin V-FITC/PI staining based flow cytometric analysis (reference value: 1.47 %); format: functional
[10] = Induction of apoptosis in mouse BaF3 cells harboring EGFR 19del/T790M/C797S mutant assessed as early apoptotic cells at 100 nM incubated for 48 hrs by Annexin V-FITC/PI staining based flow cytometric analysis (reference value: 0.36 %); format: functional
[11] = Induction of apoptosis in mouse BaF3 cells harboring EGFR 19del/T790M/C797S mutant assessed as late apoptotic cells at 100 nM incubated for 48 hrs by Annexin V-FITC/PI staining based flow cytometric analysis (reference value: 1.47 %); format: functional
[12] = Induction of apoptosis in mouse BaF3 cells harboring EGFR 19del/T790M/C797S mutant assessed as early apoptotic cells at 300 nM incubated for 48 hrs by Annexin V-FITC/PI staining based flow cytometric analysis (reference value: 0.36 %); format: functional
[13] = Induction of apoptosis in mouse BaF3 cells harboring EGFR 19del/T790M/C797S mutant assessed as late apoptotic cells at 300 nM incubated for 48 hrs by Annexin V-FITC/PI staining based flow cytometric analysis (reference value: 1.47 %); format: functional
[14] = Induction of apoptosis in mouse BaF3 cells harboring EGFR 19del/T790M/C797S mutant assessed as early apoptotic cells at 1000 nM incubated for 48 hrs by Annexin V-FITC/PI staining based flow cytometric analysis (reference value: 0.36 %); format: functional
[15] = Induction of apoptosis in mouse BaF3 cells harboring EGFR 19del/T790M/C797S mutant assessed as late apoptotic cells at 1000 nM incubated for 48 hrs by Annexin V-FITC/PI staining based flow cytometric analysis (reference value: 1.47 %); format: functional
BaF3 [16] = assay: Antitumor activity against mouse BaF3 cells harboring 19del/T790M/C797S mutant implanted in female BALB/c nu/nu mouse assessed as tumor growth inhibition at 20 mg/kg, po administered once daily for 9 days relative to control; format: functional; conditions: BaF3, 216 h, time 9 day, read-out: TGI
[17] = Induction of apoptosis in mouse BaF3 cells harboring EGFR 19del/T790M/C797S mutant assessed as early apoptotic cells at 30 nM incubated for 48 hrs by Annexin V-FITC/PI staining based flow cytometric analysis (reference value: 2.48 %); format: functional
[18] = Induction of apoptosis in mouse BaF3 cells harboring EGFR 19del/T790M/C797S mutant assessed as late apoptotic cells at 30 nM incubated for 48 hrs by Annexin V-FITC/PI staining based flow cytometric analysis (reference value: 1.75 %); format: functional
[19] = Induction of apoptosis in mouse BaF3 cells harboring EGFR 19del/T790M/C797S mutant assessed as early apoptotic cells at 300 nM incubated for 48 hrs by Annexin V-FITC/PI staining based flow cytometric analysis (reference value: 2.48 %); format: functional
[20] = Induction of apoptosis in mouse BaF3 cells harboring EGFR 19del/T790M/C797S mutant assessed as early apoptotic cells at 100 nM incubated for 48 hrs by Annexin V-FITC/PI staining based flow cytometric analysis (reference value: 2.48 %); format: functional
[21] = Induction of apoptosis in mouse BaF3 cells harboring EGFR 19del/T790M/C797S mutant assessed as late apoptotic cells at 100 nM incubated for 48 hrs by Annexin V-FITC/PI staining based flow cytometric analysis (reference value: 1.75 %); format: functional
[22] = Induction of apoptosis in mouse BaF3 cells harboring EGFR 19del/T790M/C797S mutant assessed as late apoptotic cells at 300 nM incubated for 48 hrs by Annexin V-FITC/PI staining based flow cytometric analysis (reference value: 1.75 %); format: functional
[23] = Induction of apoptosis in mouse BaF3 cells harboring EGFR 19del/T790M/C797S mutant assessed as early apoptotic cells at 1000 nM incubated for 48 hrs by Annexin V-FITC/PI staining based flow cytometric analysis (reference value: 2.48 %); format: functional
[24] = Induction of apoptosis in mouse BaF3 cells harboring EGFR 19del/T790M/C797S mutant assessed as late apoptotic cells at 1000 nM incubated for 48 hrs by Annexin V-FITC/PI staining based flow cytometric analysis (reference value: 1.75 %); format: functional

Chain of Epidermal growth factor receptor (Homo sapiens, UniProt P00533, L858R/T790M) (P00533 25-1210 T790M/L858R limits assumed): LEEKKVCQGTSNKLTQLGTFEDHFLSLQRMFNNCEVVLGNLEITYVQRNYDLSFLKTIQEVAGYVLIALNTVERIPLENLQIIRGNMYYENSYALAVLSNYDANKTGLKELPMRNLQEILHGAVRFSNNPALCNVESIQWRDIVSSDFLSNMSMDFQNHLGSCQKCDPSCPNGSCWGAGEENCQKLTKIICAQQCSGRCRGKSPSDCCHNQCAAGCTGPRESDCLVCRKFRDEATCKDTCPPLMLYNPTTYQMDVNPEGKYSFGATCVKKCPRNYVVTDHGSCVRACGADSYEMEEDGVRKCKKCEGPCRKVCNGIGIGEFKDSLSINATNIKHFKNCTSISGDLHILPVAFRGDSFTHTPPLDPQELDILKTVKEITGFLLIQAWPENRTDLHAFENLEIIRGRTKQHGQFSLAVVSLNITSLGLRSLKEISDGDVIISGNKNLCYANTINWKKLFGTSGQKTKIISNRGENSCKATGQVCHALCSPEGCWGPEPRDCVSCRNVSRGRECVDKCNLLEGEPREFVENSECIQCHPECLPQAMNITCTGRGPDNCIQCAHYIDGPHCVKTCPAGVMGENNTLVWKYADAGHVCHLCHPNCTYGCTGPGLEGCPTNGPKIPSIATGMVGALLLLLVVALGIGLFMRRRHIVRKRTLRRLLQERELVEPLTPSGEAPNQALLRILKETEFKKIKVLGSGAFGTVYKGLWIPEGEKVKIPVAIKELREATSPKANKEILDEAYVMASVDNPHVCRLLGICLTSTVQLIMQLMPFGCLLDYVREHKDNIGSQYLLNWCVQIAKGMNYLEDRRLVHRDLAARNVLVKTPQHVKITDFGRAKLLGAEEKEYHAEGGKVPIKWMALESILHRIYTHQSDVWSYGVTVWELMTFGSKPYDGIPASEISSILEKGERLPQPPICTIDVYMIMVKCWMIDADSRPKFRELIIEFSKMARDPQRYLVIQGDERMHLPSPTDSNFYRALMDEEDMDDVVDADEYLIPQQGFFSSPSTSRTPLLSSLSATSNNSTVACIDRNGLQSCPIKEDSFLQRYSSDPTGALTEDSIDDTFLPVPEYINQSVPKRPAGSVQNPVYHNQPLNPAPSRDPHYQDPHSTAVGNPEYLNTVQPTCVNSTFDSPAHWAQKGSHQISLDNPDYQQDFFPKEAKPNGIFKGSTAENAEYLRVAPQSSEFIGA
Chain of Epidermal growth factor receptor (Homo sapiens, UniProt P00533) (P00533 whole entry, the tested form may be a part): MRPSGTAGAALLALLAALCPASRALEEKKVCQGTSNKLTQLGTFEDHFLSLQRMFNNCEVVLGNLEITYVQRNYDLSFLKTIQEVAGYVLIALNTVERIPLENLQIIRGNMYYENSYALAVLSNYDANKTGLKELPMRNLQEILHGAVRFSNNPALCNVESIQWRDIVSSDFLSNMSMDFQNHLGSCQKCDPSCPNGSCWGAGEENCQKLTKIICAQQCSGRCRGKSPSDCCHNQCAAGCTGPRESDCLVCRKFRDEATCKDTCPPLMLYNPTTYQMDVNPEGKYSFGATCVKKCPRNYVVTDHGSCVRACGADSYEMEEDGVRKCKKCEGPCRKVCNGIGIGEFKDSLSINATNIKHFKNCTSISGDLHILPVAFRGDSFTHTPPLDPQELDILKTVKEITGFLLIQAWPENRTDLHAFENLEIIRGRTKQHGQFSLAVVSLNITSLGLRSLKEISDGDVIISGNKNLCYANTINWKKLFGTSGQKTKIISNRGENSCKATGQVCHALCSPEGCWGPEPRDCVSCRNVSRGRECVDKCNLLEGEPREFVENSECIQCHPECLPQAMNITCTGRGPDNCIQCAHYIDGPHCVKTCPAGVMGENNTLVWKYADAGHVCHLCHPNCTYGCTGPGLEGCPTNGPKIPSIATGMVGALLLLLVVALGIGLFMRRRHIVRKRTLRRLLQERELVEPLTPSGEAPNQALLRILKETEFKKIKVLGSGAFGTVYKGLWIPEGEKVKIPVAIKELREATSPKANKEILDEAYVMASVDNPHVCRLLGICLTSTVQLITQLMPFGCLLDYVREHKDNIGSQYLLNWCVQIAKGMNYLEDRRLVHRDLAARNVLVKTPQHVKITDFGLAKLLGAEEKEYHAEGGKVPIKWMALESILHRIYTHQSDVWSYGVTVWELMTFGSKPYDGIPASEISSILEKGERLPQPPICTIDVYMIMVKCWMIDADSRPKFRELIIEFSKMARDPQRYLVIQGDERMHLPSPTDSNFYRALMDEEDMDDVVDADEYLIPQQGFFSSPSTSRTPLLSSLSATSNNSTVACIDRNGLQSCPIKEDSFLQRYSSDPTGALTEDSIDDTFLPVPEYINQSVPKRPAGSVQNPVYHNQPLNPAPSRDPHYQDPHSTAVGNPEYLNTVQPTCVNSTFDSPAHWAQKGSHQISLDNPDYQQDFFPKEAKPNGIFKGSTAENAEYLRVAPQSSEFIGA
Chain of Epidermal growth factor receptor (Homo sapiens, UniProt P00533, C797S/EX19DEL/T790M) (P00533 whole entry, looked up, stated change not applied, the tested form may be a part): as the sequence (P00533 whole entry, the tested form may be a part) above
Chain of Epidermal growth factor receptor (Homo sapiens, UniProt P00533, C797S/L858R/T790M) (P00533 25-1210 T790M/C797S/L858R limits assumed): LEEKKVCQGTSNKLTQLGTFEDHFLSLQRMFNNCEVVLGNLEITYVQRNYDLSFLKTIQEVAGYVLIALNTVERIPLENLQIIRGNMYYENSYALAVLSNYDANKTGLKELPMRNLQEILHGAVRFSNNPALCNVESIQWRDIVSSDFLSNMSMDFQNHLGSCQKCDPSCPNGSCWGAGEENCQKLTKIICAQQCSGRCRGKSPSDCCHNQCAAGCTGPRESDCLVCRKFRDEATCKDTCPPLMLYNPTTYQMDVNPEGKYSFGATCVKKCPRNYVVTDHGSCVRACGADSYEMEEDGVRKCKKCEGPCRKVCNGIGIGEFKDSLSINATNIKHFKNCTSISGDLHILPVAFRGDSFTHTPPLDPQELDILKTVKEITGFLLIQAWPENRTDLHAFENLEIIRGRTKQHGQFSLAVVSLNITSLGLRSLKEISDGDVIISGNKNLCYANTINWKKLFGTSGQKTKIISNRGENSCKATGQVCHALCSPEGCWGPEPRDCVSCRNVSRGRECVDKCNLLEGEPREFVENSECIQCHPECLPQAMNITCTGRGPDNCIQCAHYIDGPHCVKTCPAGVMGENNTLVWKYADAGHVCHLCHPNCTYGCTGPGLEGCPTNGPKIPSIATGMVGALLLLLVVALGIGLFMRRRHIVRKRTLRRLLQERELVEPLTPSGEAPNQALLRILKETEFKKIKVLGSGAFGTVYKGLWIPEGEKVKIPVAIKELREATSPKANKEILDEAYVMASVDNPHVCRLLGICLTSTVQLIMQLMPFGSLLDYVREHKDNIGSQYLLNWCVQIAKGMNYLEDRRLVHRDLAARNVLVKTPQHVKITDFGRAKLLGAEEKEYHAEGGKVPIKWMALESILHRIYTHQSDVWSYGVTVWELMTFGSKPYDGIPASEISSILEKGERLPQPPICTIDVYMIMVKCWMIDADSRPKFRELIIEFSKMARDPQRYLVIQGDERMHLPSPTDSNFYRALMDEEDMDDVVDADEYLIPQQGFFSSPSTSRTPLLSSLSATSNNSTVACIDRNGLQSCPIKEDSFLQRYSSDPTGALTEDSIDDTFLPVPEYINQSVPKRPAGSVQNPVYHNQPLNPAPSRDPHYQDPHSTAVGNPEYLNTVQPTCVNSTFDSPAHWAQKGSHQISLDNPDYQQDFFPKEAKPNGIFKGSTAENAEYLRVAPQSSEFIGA

## COc1cc(N(C)CCN(C)C)c2cc1Nc1ncc(C(=O)OC(C)C)c(n1)Nc1ccc(cc1P(C)(C)=O)OCCCCC(=O)N2
[1]
  IC50: > 1000 nM
[2]
  IC50: > 1000 nM
[3]
  IC50: > 1000 nM
[4]
  IC50: > 1000 nM

## COc1cc(N2CCN(C)CC2)c2cc1Nc1ncc(C)c(n1)Nc1ccc(cc1P(C)(C)=O)OCCCn1cc-2cn1
[5]
  IC50 at 72 h: 2250 nM
BaF3 [6]
  IC50: < 16 nM
BaF3 [7]
  IC50: 146 nM
cells
  IC50: 62 nM
A-431
  IC50: 161 nM

## COc1cc(N(C)CCN(C)C)c2cc1Nc1nccc(n1)-c1cn(c3cc(P(C)(C)=O)ccc13)CCCCC(=O)N2
[1]
  IC50: > 1000 nM
[2]
  IC50: > 1000 nM
[3]
  IC50: > 1000 nM

## COc1cc(N(C)CCN(C)C)c2cc1Nc1nccc(n1)-c1cnn(c1)CCCCC(=O)N2
[1]
  IC50: > 1000 nM
[2]
  IC50: > 1000 nM
[3]
  IC50: > 1000 nM

## COc1cc(N2CCC(N3CCN(C)CC3)CC2)c2cc1Nc1ncc(C)c(n1)Nc1ccc(cc1P(C)(C)=O)OCCCn1cc-2cn1
[5]
  IC50 at 72 h: 2770 nM
BaF3 [6]
  IC50: 41 nM
BaF3 [7]
  IC50: 313 nM
cells
  IC50: 38 nM
A-431
  IC50: 158 nM

## COc1cc(N(C)CCN(C)C)c2cc1Nc1ncc(C)c(n1)Nc1ccc(cc1P(C)(C)=O)OCCCCC(=O)N2
[5]
  IC50 at 72 h: > 10000 nM
BaF3 [6]
  IC50: > 10000 nM
BaF3 [7]
  IC50: > 10000 nM
cells
  IC50: 2330 nM
A-431
  IC50: 4370 nM

## COc1cc(N(C)CCN(C)C)c2cc1Nc1nccc(n1)-c1cc(C#N)n(c1)CCCCC(=O)N2
[1]
  IC50: > 1000 nM
[2]
  IC50: > 1000 nM
[3]
  IC50: > 1000 nM

## COc1cc(N2CCC(N3CCN(C)CC3)CC2)c(C)cc1Nc1ncc(Br)c(Nc2ccc3nccnc3c2P(C)(C)=O)n1
[5]
  IC50 at 72 h: 2040 nM
[8]
  Activity: 2.39%
[9]
  Activity: 1.98%
[10]
  Activity: 6.67%
[11]
  Activity: 3.84%
[12]
  Activity: 50.63%
[13]
  Activity: 18.4%
[14]
  Activity: 64.67%
[15]
  Activity: 22.63%
BaF3 [16]
  inhibition in vivo at 20 mg/kg: 78.4%
BaF3 [6]
  IC50: 100 nM
BaF3 [7]
  IC50: 176 nM
cells
  IC50: 94 nM
A-431
  IC50: 302 nM

## C=CC(=O)Nc1cc(Nc2nccc(-c3cn(C)c4ccccc34)n2)c(OC)cc1N(C)CCN(C)C [OSIMERTINIB]
BaF3 [6]
  IC50: 1550 nM
BaF3 [7]
  IC50: 1760 nM
cells
  IC50: 2600 nM
A-431
  IC50: […]

## COc1cc(N(C)CCN(C)C)c2cc1Nc1ncc(C)c(n1)Nc1ccc(cc1P(C)(C)=O)OCCCCCC2
[5]
  IC50 at 72 h: > 10000 nM
BaF3 [6]
  IC50: 1730 nM
BaF3 [7]
  IC50: 2090 nM
cells
  IC50: 1000 nM
A-431
  IC50: > 10000 nM

## COc1cc(N2CCC(N3CCN(C)CC3)CC2)ccc1Nc1ncc(Cl)c(Nc2ccccc2P(C)(C)=O)n1 [BRIGATINIB]
[5]
  IC50 at 72 h: 2380 nM
[17]
  Activity: 2.4%
[18]
  Activity: 1.21%
[19]
  Activity: 4.25%
[20]
  Activity: 3.51%
[21]
  Activity: 1.3%
[22]
  Activity: 1.86%
[23]
  Activity: 32.44%
[24]
  Activity: 6.87%
BaF3 [6]
  IC50: 382 nM
BaF3 [7]
  IC50: 392 nM
cells
  IC50: 314 nM
A-431
  IC50: 436 nM

## COc1cc(N(C)CCN(C)C)c2cc1Nc1ncc(C)c(n1)Nc1ccc(cc1P(C)(C)=O)OCCCn1cc-2cn1
[5]
  IC50 at 72 h: > 10000 nM
BaF3 [6]
  IC50: 174 nM
BaF3 [7]
  IC50: 394 nM
cells
  IC50: 104 nM
A-431
  IC50: > 10000 nM
